According to patent US12492337B2, “Fluorescent probe, preparation method therefor and use thereof” (FLUORESCENCE DIAGNOSIS (SHANGHAI) BIOTECH COMPANY, priority 2017, dated 2025):

What was measured:
HaloTag protein tag = assay: Probe mixed with HaloTag protein tag, fluorescence spectrophotometer (Example 86); format: biochemical; details: 5 μM probe, 10 μM protein tag, 37° C., 1 hour; for Fluorescence enhancement: fluorescence activation multiple after binding protein tag; for Emission/nm: fluorescence emission wavelength
Description: (§1) A probe was mixed with a corresponding HaloTag protein tag to obtain a mixed sample. The final concentration of the probe in the mixed sample was 5 μM and the final concentration of the protein tag was 10 μM. The mixed sample was incubated at 37° C. for 1 hour, and the sample was detected using a fluorescence spectrophotometer.

[1] = Quantum yield of free probe not reacted with protein tag; format: physicochemical
Description: as §1

[2] = Viscosity responsiveness: fluorescence intensity in glycerol versus methanol; format: physicochemical; details: fluorescence intensity in glycerol to that in methanol
Description: The above-mentioned viscosity-responsive fluorescent dye means that the fluorescence intensity of the dye responds to the viscosity of the solution. As the viscosity of the solution increases, the fluorescence intensity increases. Optionally, the viscosity-responsive fluorescent dye is an organic dye molecule which, under the same concentration and excitation wavelength, at 25° C. has a ratio • of the maximum fluorescence emission intensity of the dye in glycerol to the fluorescence intensity in methanol of greater than 2, optionally greater than 5, optionally greater than 10. The concentration of the viscosity-responsive dye ranges from 1×10^−7 M to 1×10^−5 M.

| The quantum yield after binding to Halo-tag (HaloTag protein tag) | Emission/nm (HaloTag protein tag) [nm] | The quantum yield of the free probe [1] | ratio [2] | Compound | Fluorescence enhancement (HaloTag protein tag) |
| --- | --- | --- | --- | --- | --- |
| 0.52 | 480 | <0.001 | 560 | CN(CCOC(=O)NCCOCCOCCCCCCCl)c1ccc(/C=C(\C#N)C(=O)OC(C)(C)C)cc1 [Probe 1] | 500 |
| 0.48 | 510 | 0.001 | 410 | CN(CCOC(=O)NCCOCCOCCCCCCCl)c1ccc(/C=C(\C#N)c2nc3ccccc3o2)cc1 [Probe 2] | 410 |
| 0.45 | 515 | 0.0011 | 399 | CN(CCOC(=O)NCCOCCOCCCCCCCl)c1ccc(/C=C(\C#N)c2nc3ccccc3s2)cc1 [Probe 3] | 512 |
| 0.42 | 480 | <0.001 | 562 | CC(C)(C)OC(=O)/C(C#N)=C/c1ccc(N(CCO)CCOC(=O)NCCOCCOCCCCCCCl)cc1 [Probe 4] | 490 |
| 0.50 | 480 | <0.001 | 851 | CN(CCOC(=O)NCCOCCOCCCCCCCl)c1ccc(/C=C(\C#N)C(=O)O)cc1 [Probe 9] | 745 |
| 0.41 | 555 | 0.0012 | 405 | CN(CCOC(=O)NCCOCCOCCCCCCCl)c1cc2sc(/C=C(\C#N)C(=O)O)cc2s1 [Probe 12] | 750 |
| 0.56 | 570 | <0.001 | 391 | CN(CCOC(=O)NCCOCCOCCCCCCCl)c1ccc2cc(/C=C(\C#N)C(=O)OC(C)(C)C)sc2c1 [Probe 13] | 816 |

Second part, the compound before the results:

| Compound | The quantum yield after binding to Halo-tag (HaloTag protein tag) | Emission/nm (HaloTag protein tag) [nm] | The quantum yield of the free probe [1] | ratio [2] | Fluorescence enhancement (HaloTag protein tag) |
| --- | --- | --- | --- | --- | --- |
| CC(C)(C)OC(=O)/C(C#N)=C/c1ccc(N(CCOC(=O)NCCCS(=O)(=O)[O-])CCOC(=O)NCCOCCOCCCCCCCl)cc1.[Na+] [Probe5] | 0.46 | 480 | <0.001 | 790 | 1174 |
| CN1C(=O)/C(=C/c2ccc(N(C)CCOC(=O)NCCOCCOCCCCCCCl)cc2)N=C1c1ccccc1 [Probe 6] | 0.40 | 530 | <0.001 | 1183 | 989 |
| CN1C(=O)/C(=C/c2ccc(N(C)CCOC(=O)NCCOCCOCCCCCCCl)cc2)N=C1/C=C/c1ccccc1 [Probe 7] | 0.46 | 580 | <0.001 | 1455 | 1502 |
| CN(CCOC(=O)NCCOCCOCCCCCCCl)c1ccc(C2=C(C#N)C(=C(C#N)C#N)OC2(C)C)cc1 [Probe 8] | 0.47 | 535 | 0.0018 | 320 | 296 |
| CN(CCOC(=O)NCCOCCOCCCCCCCl)c1cc2sc(/C=C(\C#N)C(=O)OC(C)(C)C)cc2s1 [Probe 10] | 0.42 | 550 | <0.001 | 655 | 431 |
| CN(CCOC(=O)NCCOCCOCCCCCCCl)c1cc2sc(/C=C(\C#N)c3nc4ccccc4o3)cc2s1 [Probe 11] | 0.46 | 590 | 0.0013 | 422 | 520 |
